Laboratory results taken from patent publication US20020034725A1, “SENSITIZATION OF CELLS TO RADIATION AND AND CHEMOTHERAPY” (priority 1996, published 2002).

Key:
[1] = test system: 3.7, 5R and REF-GG cells; assay: Morphological alterations of ras transformed REF cells; assay type: cell-based, rat
Procedure: FIG. 11A is an image of 3.7 cells that were cultured in medium containing 2.5 μM FTI-277 (right) or DMSO (left) for 48 hours.
FIG. 11B is an image of REF-GG cells that were cultured in medium containing 5 μM FTI-277 (right) or DMSO (left) for 48 hours.

[2] = test system: REF, 3.7, 4R, 5R and REF-GG cells; assay: Apoptosis determination after 10 Gray irradiation (propidium iodide); assay type: cell-based, rat
Procedure: 3×10^3 cells/well in 24-well plates were allowed to attach for 12 hours and were then treated with medium containing FTI-277 in DMSO or an equivalent volume of DMSO without inhibitor. Twenty four hours after irradiation with 10 Gray using the irradiator described above, both adherent and non-adherent cells were harvested. Cells were stained with propidium iodide (Muschel et al., 1995, Cancer Res. 55:995-998). A minimum of three independent fields of 100 cells were counted for each sample. Scoring of samples was performed in a double blind manner.

[3] = test system: 5R, 3.7, MR4 and REF cells; assay: Radiation survival determination (clonogenic survival); assay type: cell-based, rat; conditions: for plating efficiency: unaffected by FTI-277
Procedure: FIG. 14A comprises a series of graphs depicting clonogenic survival of 5R, 3.7, MR4, and REF cells following treatment with FTI-277 and irradiation of the cells. Immediately prior to irradiation, FTI-277 was added at concentrations of 2.5 μM (3.7 cells) or 5 μM (5R, MR4 and REF cells). The inhibitor was diluted out of the culture medium 24 hours later resulting in a final concentration of inhibitor of 1 μM (3.7 cells) or 2 μM (5R, MR4 and REF). The plating efficiencies of MR4 and […] were unaffected by treatment with FTI-277, being 100% and 32-38%, respectively. FTI-277 reduced the plating efficiency of 3.7 and REF cells by 50% of untreated control values which were 75% and 5%, respectively. […] The data points shown represent the mean of the results obtained from at least three separate dishes of cells. The open symbols indicate the results obtained in untreated cells and the closed symbols are those results obtained in cells treated with FTI-277. In the panel labeled 3.7, the open triangles are the results obtained in untreated MR4 cells.
Cells obtained from log growth cultures were plated in 60-mm dishes and allowed to attach for 4 hours before addition of FTI-277 to the medium. The plating medium was then removed and fresh medium containing FTI-277 in DMSO or DMSO alone (for control dishes) was added immediately before irradiation. Cells were irradiated with a Mark I cesium irradiator (J. S. Shepherd, San Fernando, Calif.) at a dose rate of 1.7 Gray per minute. Colonies of cells were stained and counted 10-14 days after irradiation (McKenna et al., 1990, supra). The surviving fraction of cells at a given dose is defined as: [formula]
Each point on the survival curves represents the mean surviving fraction from at least three dishes of cells.

[4] = test system: H-ras^v12; assay: Western blot of H-ras farnesylation in T24 bladder carcinoma cells; assay type: cell-based, human; conditions: 5 μM
Procedure: FIG. 16A is an image of a Western blot depicting changes in farnesylation of H-ras^v12 following treatment of human bladder carcinoma cells with FTI-277. T24 bladder carcinoma cells were treated with 5 μM of FTI-277 for the times indicated (hours). Samples were harvested and cell lysates were prepared for Western blot analysis using anti-H-ras antibody. Untreated control samples harvested at 0 and 30 hours are shown for comparison.
Cells were lysed in culture dishes with 1 x reducing Laemmli sample buffer. Samples were boiled, sheared and clarified by centrifugation at 14,000 rpm in a microfuge before storage at −20° C. Samples containing equal amounts of protein were separated on a 12% SDS polyacrylamide gel and electrophoretically transferred to nitrocellulose membranes. Membranes were blocked for 1-2 hours in PBS containing 0.1% Tween-20 and 5% powdered milk before antibody addition. Membranes were probed with monoclonal pan-ras antibody AB-4 (Oncogene Science, Uniondale, N.Y.) at a concentration of 0.5 μg/ml, or with monoclonal H-ras antibody LA069 (1:5000 dilution; Quality Biotech, Camden, N.J.). Detection of protein was accomplished using the ECL chemiluminescence kit (Amersham, Arlington Heights, Ill.). Images were digitized using an Arcus II scanner, and figures were assembled using Adobe Photoshop 3.0.

[5] = test system: H-ras; assay: Western blot of H-ras prenylation in SW480 cells; assay type: cell-based, human; conditions: 48 hours
Procedure: FIG. 17A is an image of a Western blot depicting inhibition by FTI-277 of K-ras prenylation in human SW480 colon carcinoma cells. SW480 cells were treated with the indicated concentrations of FTI-277 (μM) for 48 hours. Samples were harvested and cell lysates were analyzed by Western blotting using either a H-ras monoclonal antibody (top) or a K-ras monoclonal antibody (bottom). Arrows indicate unfarnesylated ras bands.

[6] = test system: H-ras; assay: H-ras prenylation in human colon carcinomas grown in nude mice; assay type: in vivo, mouse; conditions: SW480 and LoVo tumors in nude mice, two intraperitoneal injections of 50 mg/kg
Procedure: Expression of H-ras was detected by Western blot analysis using anti-H-ras monoclonal antibody of lysates of the human colon adenocarcinomas, SW480 and LoVo, grown in nude mice. Lysates were obtained from tumors excised from a vehicle (DMSO) treated mouse (Lane 1) and mice treated twice with intraperitoneal injections of 50 mg/kg of FTI-277 18 hours after treatment was initiated (Lanes 2 and 3). Lane 1 and 2: SW480, Lane 3: LoVo. The arrow denotes the migration of unfarnesylated H-ras.
To examine the effectiveness of prenylation inhibitors in vivo in an animals, both rodent and human tumor responses to these inhibitors were examined in tumor grafts growing on nude mice. The protocols described in Hoffinan (1992, Curr, Perspect. on Molec. & Cell. Oncol. 1:311-326) were followed to establish and grow tumors in nude mice.
To perform the assay, tumors were implanted and allowed to grow to approximately 125 mm^3. Mice having these tumors were then administered 50 mg/kg FTI-277 by intraperitoneal injection. Controls included mice which were injected with an equal volume of drug-free carrier solution. Two injections were given to each mouse, one at 18 hours and a second at 5 hours prior to sacrificing each mouse. The tumor ras prenylation status of the mice was subsequently assessed as described herein.

[7] = molecular target: FTase (Homo sapiens, UniProt P49354+P49356); conditions: cited from earlier work

## COC(=O)[C@H](CCSC)NC(=O)c1ccc(NC[C@@H](N)CS)cc1-c1ccccc1 [FTI-277]
[1]; H-ras transformed REF cells (3.7 cells 2.5 μM), 48 hours
  cell morphology: partial reversion of transformation
[1]; REF-GG cells, 5 μM
  cell morphology: did not induce altered cell morphology
[2]; 3.7 cells, 10 Gray
  inhibitor concentration of maximum effect on apoptosis: 5 µM
[2]; 3.7 cells, 10 Gray, 2.5 μM
  apoptosis after irradiation: significant increase
[2]; 3.7 cells, 10 Gray, 24 hours
  extent of apoptosis induced by irradiation: greatly enhanced
[2]; 4R and 5R cells, 10 Gray
  irradiation-induced apoptosis: augment irradiation-induced apoptosis
[2]; 48 hours, highest doses, 3.7 cells only
  toxicity of the inhibitor: some toxicity
[2]; REF-GG cells
  extent of apoptosis after irradiation: no significant effect
[2]; REF-GG cells, unirradiated
  baseline level of apoptosis: slightly increased
[2]; untransformed REF cells, 10 Gray
  apoptosis after irradiation: did not result in an increase in apoptosis
[3]; 3.7 (2.5 μM) and 5R (5 μM) cells, 24 hours after irradiation
  radioresistance (survival curves): reduced to a level of survival which was similar to that seen in MR4 cells
[3]; 3.7 and REF cells
  reduction of plating efficiency, of untreated control values: 50%
[3]; 5R cells
  plating efficiency: 32-38%
[3]; MR4 cells
  plating efficiency: 100%
[3]; MR4 or REF cells, 5 μM
  radiation survival: no effect on radiation survival
[4]
  time after which unfarnesylated H-ras was detectable: 5 h
  time required to achieve 50% of ras in the unfarnesylated form: 24 h
[5]
  lowest concentration with altered migration of H-ras: 2.5 µM
[6]
  H-ras migration in tumors: altered H-ras migration
[7]
  FTase inhibition: inhibited Ftase activity
